US8722656B2, “Cephalosporins useful as antibacterial agents” (Zoetis LLC, priority 2011, dated 2014)
In brackets after ≈: the same amount, converted by molar mass.

How the values were obtained:
[1] = tested on: M. haemo 43411; test: Dilution antimicrobial susceptibility test (M07-A8), M. haemolytica; type: cell-based; conditions: Mannheimia haemolytica; antibacterial activity by dilution susceptibility test, isolate 43411
Experimental: (§1) Compounds of the present invention were tested against an assortment of Gram-negative and Gram-positive organisms using the industrial standard techniques described in Methods for Dilution Antimicrobial Susceptibility Tests for Bacteria That grow Aerobically; Approved Standard-Eighth Edition, […]-A8, Vol. 29 No. 2 Replaces […]-A7 Vol. 26 No. 2. […] When comparing the activity against these isolates with that of the marketed human health drug of cefepime (screened in the same panel), the exemplified compounds of the present invention show >200 times more selectivity over E. coli.

[2] = tested on: P. multo 43719; test: Dilution antimicrobial susceptibility test (M07-A8), P. multocida; type: cell-based; conditions: Pasteurella multocida; antibacterial activity by dilution susceptibility test, isolate 43719
Experimental: as §1

[3] = tested on: E. coli 25922; test: Dilution antimicrobial susceptibility test (M07-A8), E. coli; type: cell-based, Escherichia coli; conditions: for MIC: Escherichia coli, antibacterial activity by dilution susceptibility test, isolate 25922; for E. coli/P. multocida: selectivity for P. multocida over E. coli (ratio of the two values)
Experimental: as §1

| Structure (SMILES) | MIC [1] | MIC [2] | MIC [3] | E. coli/P. multocida [3] |
| --- | --- | --- | --- | --- |
| CO/N=C(\C(=O)N[C@@H]1C(=O)N2C(C(=O)O)=C(Cc3cc(S(=O)(=O)NCCSC(C)=O)ccc3C)CS[C@H]12)c1csc(N)n1 [Example 20, (6R,7R)-3-(5-{[2-(acetylsulfanyl)ethyl]sulfamoyl}-2-methylbenzyl)-7-{[(2Z)-2-(2-amino-1,3-thiazol-4-yl)-2-(methoxyimino)acetyl]amino}-8-oxo-5-thia-1-azabicyclo[4.2.0]oct-2-ene-2-carboxyl is acid] | 0.25 µg/mL (≈ 0.374 µM) | 0.25 µg/mL (≈ 0.374 µM) | 64 µg/mL (≈ 95.7 µM) | 256 |
| CCN(CCSC(C)=O)S(=O)(=O)c1cccc(CC2=C(C(=O)O)N3C(=O)[C@@H](NC(=O)/C(=N\OC)c4csc(N)n4)[C@H]3SC2)c1 [Example 21, (6R,7R)-3-(3-{[2-(acetylsulfanyl)ethyl](ethyl)sulfamoyl}benzyl)-7-{[(2Z)-2-(2-amino-1,3-thiazol-4-yl)-2-(methoxyimino)acetyl]amino}-8-oxo-5-thia-1-azabicyclo[4.2.0]oct-2-ene-2-carboxylic acid] | 0.125 µg/mL (≈ 0.183 µM) | 0.03 µg/mL (≈ 0.0439 µM) | 32 µg/mL (≈ 46.9 µM) | 1066 |
| CNS(=O)(=O)c1ccc(OC)c(CC2=C(C(=O)O)N3C(=O)[C@@H](NC(=O)/C(=N\OC)c4csc(N)n4)[C@H]3SC2)c1 [Example 22, (6R,7R)-7-{[(2Z)-2-(2-amino-1,3-thiazol-4-yl)-2-(methoxyimino)acetyl]amino}-3-[2-methoxy-5-(methylsulfamoyl)benzyl]-8-oxo-5-thia-1-azabicyclo[4.2.0]oct-2-ene-2-carboxylic acid] | 0.125 µg/mL (≈ 0.209 µM) | 0.25 µg/mL (≈ 0.419 µM) | 64 µg/mL (≈ 107 µM) | 256 |
| CNS(=O)(=O)c1cccc(CC2=C(C(=O)O)N3C(=O)[C@@H](NC(=O)/C(=N\OC)c4csc(N)n4)[C@H]3SC2)c1 [Example 23, (6R,7R)-7-{[(2Z)-2-(2-amino-1,3-thiazol-4-yl)-2-(methoxyimino)acetyl]amino}-3-[3-(methylsulfamoyl)benzyl]-8-oxo-5-thia-1-azabicyclo[4.2.0]oct-2-ene-2-carboxylic acid] | 0.06 µg/mL (≈ 0.106 µM) | 0.125 µg/mL (≈ 0.221 µM) | 16 µg/mL (≈ 28.2 µM) | 128 |
| CNS(=O)(=O)c1ccc(C)c(CC2=C(C(=O)O)N3C(=O)[C@@H](NC(=O)/C(=N\OC)c4csc(N)n4)[C@H]3SC2)c1 [Example 24, (6R,7R)-7-{[(2Z)-2-(2-amino-1,3-thiazol-4-yl)-2-(methoxyimino)acetyl]amino}-3-[2-methyl-5-(methylsulfamoyl)benzyl]-8-oxo-5-thia-1-azabicyclo[4.2.0]oct-2-ene-2-carboxylic acid] | 0.008 µg/mL (≈ 0.0138 µM) | 0.015 µg/mL (≈ 0.0258 µM) | 4 µg/mL (≈ 6.89 µM) | 266 |
| CO/N=C(\C(=O)N[C@@H]1C(=O)N2C(C(=O)O)=C(Cc3cccc(S(=O)(=O)N(C)C)c3)CS[C@H]12)c1csc(N)n1 [Example 25, (6R,7R)-7-{[(2Z)-2-(2-amino-1,3-thiazol-4-yl)-2-(methoxyimino)acetyl]amino}-3-[3-(dimethylsulfamoyl)benzyl]-8-oxo-5-thia-1-azabicyclo[4.2.0]oct-2-ene-2-carboxylic acid] | 0.008 µg/mL (≈ 0.0138 µM) | 0.008 µg/mL (≈ 0.0138 µM) | 8 µg/mL (≈ 13.8 µM) | 1000 |
| CNS(=O)(=O)c1cc(CC2=C(C(=O)O)N3C(=O)[C@@H](NC(=O)/C(=N\OC)c4csc(N)n4)[C@H]3SC2)cc(OC)c1 [Example 26, (6R,7R)-7-{[(2Z)-2-(2-amino-1,3-thiazol-4-yl)-2-(methoxyimino)acetyl]amino}-3-[3-methoxy-5-(methylsulfamoyl)benzyl]-8-oxo-5-thia-1-azabicyclo[4.2.0]oct-2-ene-2-carboxylic acid] | 0.008 µg/mL (≈ 0.0134 µM) | 0.015 µg/mL (≈ 0.0251 µM) | 4 µg/mL (≈ 6.7 µM) | 266 |
| CNS(=O)(=O)c1cc(C)cc(CC2=C(C(=O)O)N3C(=O)[C@@H](NC(=O)/C(=N\OC)c4csc(N)n4)[C@H]3SC2)c1 [Example 27, (6R,7R)-7-{[(2Z)-2-(2-amino-1,3-thiazol-4-yl)-2-(methoxyimino)acetyl]amino}-3-[3-methyl-5-(methylsulfamoyl)benzyl]-8-oxo-5-thia-1-azabicyclo[4.2.0]oct-2-ene-2-carboxylic acid] | 0.008 µg/mL (≈ 0.0138 µM) | 0.015 µg/mL (≈ 0.0258 µM) | 8 µg/mL (≈ 13.8 µM) | 533 |
| CO/N=C(\C(=O)N[C@@H]1C(=O)N2C(C(=O)O)=C(Cc3ccc(S(C)(=O)=O)cc3C)CS[C@H]12)c1csc(N)n1 [Example 28, (6R,7R)-7-{[(2Z)-2-(2-amino-1,3-thiazol-4-yl)-2-(methoxyimino)acetyl]amino}-3-[2-methyl-4-(methylsulfonyl)benzyl]-8-oxo-5-thia-1-azabicyclo[4.2.0]oct-2-ene-2-carboxylic acid] | 0.06 µg/mL (≈ 0.106 µM) | 0.03 µg/mL (≈ 0.053 µM) | 4 µg/mL (≈ 7.07 µM) | 133 |
